pIC50: −log10 of the molar value.
Experiment: Biochemical Assay : 5 μl WT full length PAICS (final assay concentration, fac, 2.5 nM) in basic buffer, added to black, non-binding, 384-well plates (Corning #3575), columns 1 to 22. 5 μl basic buffer was added to columns 23+24 (negative control). PAICS stock at 31.9 μM from the PI's lab (Steve Firestine). Basic buffer contained 50 mM Tris-HCl pH8 and 0.5 mM EDTA, fac.1 μl compound in 100% DMSO added per well, or 1 μl 100% DMSO to positive controls (columns 1+2) and negative controls (columns 23+24). Final assay top concentration of compound either 1 mM or 30-μM, serially diluted with half-log dilutions across the plate in duplicate (one 10-point concentration response curve across wells 3 to 12, another across 13 to 22). Compounds pre-incubated with PAICS enzyme for 30 mins at RT. 2 μl CAIR added (fac 10 μM) in basic buffer plus 25 mM MgCl2 and 50 mM KHCO3 fac to all wells. CAIR stock 50 mM from Steve Firestine's lab. 1 hr RT incubation for AIR-CAIR equilibration. NB: ˜50% CAIR is decarboxylated during equilibration therefore 5 μM remains for the synthetase reaction.2 μl ATP/aspartic acid added (fac 30 μM/180 μM) in reaction buffer to all wells. 30 mins RT incubation for appropriate level of ATP turnover. […]

pIC50: < 7.00
SMILES: Nc1nc(C(=O)Nc2cc(N3CCN(C(=O)OCC4CNC4)CC3)ccc2Cl)co1
